System: 429239-143-T-J1-PDC complex spheroid viability
Test: Anticancer human tumor 429239-143-T-J1-PDC patient-derived small cell lung carcinoma cell line growth inhibition [POLQ]
Conditions: for IC50: curve of first compound; for viability, T/C: stronger effect = lower value
Description: Multicellular complex tumor spheroid response to Polymerase (POL) inhibitors (novobiocin, ART-558, RP6685) in combination with a variety of drugs and investigational agents in selected tumor cell lines
The POL inhibitors (novobiocin, ART-558, and RP6685) were evaluated both individually and in combination with standard of care and investigational anticancer small molecules within a complex spheroid model of solid tumors. . Complex spheroids include a stromal component modeled by human endothelial cells (HUVEC) and fibroblasts modeled by human mesenchymal stem cells (MSCs). The concentration ranges selected for each drug and investigational agent were based upon clinically achievable concentrations if the clinical Cmax of the agent was known.
Compounds. The drugs and investigational agents: novobiocin (NSC847541), ART-558 (NSC835418), RP-6685 (NSC848927), peposertib (NSC802822), ceralasertib (NSC780249), elimusertib (NSC800525), camonsertib (NSC841442), AZD-1390 (NSC803789), olaparib (NSC753686), talazoparib (NSC767125), rucaparib (NSC756644), sotorasib (NSC818433), MRTX-1133 (NSC836407), SN-38 (NSC673596), topotecan (NSC609699), epotoside (NSC141540), doxorubicin (NSC123127), gemcitabine (NSC613327), 5-fluorouracil (NSC19893), paclitaxel (NSC125973), vemurafenib (NSC761431), MSA-2 (NSC828583), SN-011 (NSC837082), adavosertib (NSC754352), prexasertib (NSC758257), carboplatin (NSC241240) and oxaliplatin (NSC266046), were obtained from the National Cancer Institute (NCI) Developmental Therapeutics Program Chemical Repository (21). The FDA-approved anticancer drug set is available from the Developmental Therapeutics Program at https://dtp.cancer.gov/organization/dscb/obtaining/. […] The stock solutions were prepared in dimethyl sulfoxide (DMSO, Sigma-Aldrich, St. Louis, MO, cat. D2650), except for the platinum compounds which were prepared in saline (Quality Biological, Gaithersburg, MD, cat. 114-055-101), at 800-fold the tested concentration and stored at -70 degrees C prior to their use. All drugs and investigational agents were tested over a range starting from a high concentration at or near the clinical Cmax and decreasing in half-log increments. If the clinical Cmax for an agent had not been determined, the highest concentration tested was 10 microM, except for SN-38, which was tested at a high concentration of 1 microM.
Cell Culture. All cells were maintained in an incubator at 37 degrees C and 5% CO2 with 95% humidity. The PDC lines were cultured according to standard operating procedures established by the NCI PDMR (https://pdmr.cancer.gov). Table 3 of the manuscript, lists the cell lines along with the number of the three cell types plated to form the mct-spheroids and media for tumor cell growth. After thawing, all PDC lines, except 997537-175-T-J1-PDC and 415267-285-R-J2-PDC, were cultured in Matrigel-coated flasks prepared with a working solution of 1X Ham's F-12 nutrient mix, without supplementation (Thermo Fisher Scientific, cat. 11765054), 100 U/mL penicillin-streptomycin (Thermo Fisher Scientific, cat. 15140122), and 2.5% Matrigel (Corning Inc., Corning, NY, cat. 354248) for the first three passages. The two PDC lines 997537-175-T-J1-PDC and 415267-285-R-J2-PDC were cultured on uncoated flasks. The 857933-349-R-J2-PDC line was cultured in 6C/Colon 1B media containing advanced DMEM/F-12 (Thermo Fisher Scientific, cat. 12634028), 10 mM HEPES (Thermo Fisher Scientific, cat. 15630080), 1X GlutaMAX supplement (Thermo Fisher Scientific, cat. 35050061), 0.1 mg/mL primocin (InvivoGen, San Diego, CA, cat. ant-pm-2), 10% defined fetal bovine serum, heat inactivated (HyClone Laboratories Inc., Logan, UT, cat. SH30070.03HI), 50% L-WRN conditioned media (ATCC, cat. CRL-3276), 1.25 mM N-Acetyl-L-cysteine (Sigma-Aldrich, cat. A9165), 10 mM nicotinamide (Sigma-Aldrich, cat. N0636), 1X B-27 supplement (Thermo Fisher Scientific, cat. 17504044), 1X N-2 supplement (Thermo Fisher Scientific, cat. […]

[1] = second compound 0.0316 µM, first compound 0.0316 µM
[2] = second compound 0.0316 µM, first compound 0.1 µM
[3] = second compound 0.0316 µM, first compound 0.316 µM
[4] = second compound 0.0316 µM, first compound 1 µM
[5] = second compound 0.1 µM, first compound 0.0316 µM
[6] = second compound 0.1 µM, first compound 0.1 µM
[7] = second compound 0.1 µM, first compound 0.316 µM
[8] = second compound 0.1 µM, first compound 1 µM
[9] = second compound 0.316 µM, first compound 0.0316 µM
[10] = second compound 0.316 µM, first compound 0.1 µM
[11] = second compound 0.316 µM, first compound 0.316 µM
[12] = second compound 0.316 µM, first compound 1 µM
[13] = second compound 1 µM, first compound 0.0316 µM
[14] = second compound 1 µM, first compound 0.1 µM
[15] = second compound 1 µM, first compound 0.316 µM
[16] = second compound 1 µM, first compound 1 µM
[17] = second compound 3.16 µM, first compound 0.0316 µM
[18] = second compound 3.16 µM, first compound 0.1 µM
[19] = second compound 3.16 µM, first compound 0.316 µM
[20] = second compound 3.16 µM, first compound 1 µM
[21] = second compound 10 µM, first compound 0.0316 µM
[22] = second compound 10 µM, first compound 0.1 µM
[23] = second compound 10 µM, first compound 0.316 µM
[24] = second compound 10 µM, first compound 1 µM
[25] = second compound 0.0316 µM, first compound 3.16 µM
[26] = second compound 0.0316 µM, first compound 10 µM
[27] = second compound 0.1 µM, first compound 3.16 µM
[28] = second compound 0.1 µM, first compound 10 µM
[29] = second compound 0.316 µM, first compound 3.16 µM
[30] = second compound 0.316 µM, first compound 10 µM
[31] = second compound 1 µM, first compound 3.16 µM
[32] = second compound 1 µM, first compound 10 µM
[33] = second compound 3.16 µM, first compound 3.16 µM
[34] = second compound 3.16 µM, first compound 10 µM
[35] = second compound 10 µM, first compound 3.16 µM
[36] = second compound 10 µM, first compound 10 µM
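Note: luminescence signal used as surrogate measure of viable cells; spheroids exposed to compounds for seven days before readout.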
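Throughout, for viability, T/C: 100% = DMSO vehicle control viability as luminescence relative to vehicle.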

SMILES: C=CCn1c(=O)c2cnc(Nc3ccc(N4CCN(C)CC4)cc3)nc2n1-c1cccc(C(C)(C)O)n1 + Nc1ccc(C#CCN(C(=O)Cc2ncc(C(F)(F)F)cc2C(F)(F)F)c2ccc(F)cc2)nn1
- IC50 (second compound 0.0316 µM): 0.584 µM
- IC50 (second compound 0.1 µM): 0.624 µM
- IC50 (second compound 0.316 µM): 0.599 µM
- IC50 (second compound 1 µM): 0.578 µM
- IC50 (second compound 3.16 µM): 0.576 µM
- IC50 (second compound 10 µM): 0.548 µM
- viability, T/C (second compound 0.0316 µM, first compound 0.00316 µM): 95.7%
- viability, T/C (second compound 0.0316 µM, first compound 0.01 µM): 97.4%
- viability, T/C [1]: 106%
- viability, T/C [2]: 101%
- viability, T/C [3]: 88.1%
- viability, T/C [4]: 16.3%
- viability, T/C (second compound 0.1 µM, first compound 0.00316 µM): 99.1%
- viability, T/C (second compound 0.1 µM, first compound 0.01 µM): 103%
- viability, T/C [5]: 96.6%
- viability, T/C [6]: 103%
- viability, T/C [7]: 95%
- viability, T/C [8]: 18.7%
- viability, T/C (second compound 0.316 µM, first compound 0.00316 µM): 106%
- viability, T/C (second compound 0.316 µM, first compound 0.01 µM): 110%
- viability, T/C [9]: 108%
- viability, T/C [10]: 101%
- viability, T/C [11]: 94%
- viability, T/C [12]: 15.2%
- viability, T/C (second compound 1 µM, first compound 0.00316 µM): 111%
- viability, T/C (second compound 1 µM, first compound 0.01 µM): 109%
- viability, T/C [13]: 97.8%
- viability, T/C [14]: 105%
- viability, T/C [15]: 89.3%
- viability, T/C [16]: 14%
- viability, T/C (second compound 3.16 µM, first compound 0.00316 µM): 109%
- viability, T/C (second compound 3.16 µM, first compound 0.01 µM): 101%
- viability, T/C [17]: 100%
- viability, T/C [18]: 103%
- viability, T/C [19]: 90.3%
- viability, T/C [20]: 12.9%
- viability, T/C (second compound 10 µM, first compound 0.00316 µM): 106%
- viability, T/C (second compound 10 µM, first compound 0.01 µM): 99.7%
- viability, T/C [21]: 122%
- viability, T/C [22]: 101%
- viability, T/C [23]: 84%
- viability, T/C [24]: 13.3%

SMILES: CCCS(=O)(=O)Nc1ccc(F)c(C(=O)c2c[nH]c3ncc(-c4ccc(Cl)cc4)cc23)c1F + Nc1ccc(C#CCN(C(=O)Cc2ncc(C(F)(F)F)cc2C(F)(F)F)c2ccc(F)cc2)nn1
- IC50 (second compound 0.0316 µM): > 10 µM
- IC50 (second compound 0.1 µM): > 10 µM
- IC50 (second compound 0.316 µM): > 10 µM
- IC50 (second compound 1 µM): > 10 µM
- IC50 (second compound 3.16 µM): > 10 µM
- IC50 (second compound 10 µM): > 10 µM
- viability, T/C [1]: 99%
- viability, T/C [2]: 111%
- viability, T/C [3]: 101%
- viability, T/C [4]: 110%
- viability, T/C [25]: 104%
- viability, T/C [26]: 93.3%
- viability, T/C [5]: 106%
- viability, T/C [6]: 102%
- viability, T/C [7]: 96.9%
- viability, T/C [8]: 100%
- viability, T/C [27]: 98.3%
- viability, T/C [28]: 88.7%
- viability, T/C [9]: 105%
- viability, T/C [10]: 108%
- viability, T/C [11]: 106%
- viability, T/C [12]: 106%
- viability, T/C [29]: 108%
- viability, T/C [30]: 93.4%
- viability, T/C [13]: 114%
- viability, T/C [14]: 99.5%
- viability, T/C [15]: 97.4%
- viability, T/C [16]: 104%
- viability, T/C [31]: 112%
- viability, T/C [32]: 91%
- viability, T/C [17]: 105%
- viability, T/C [18]: 104%
- viability, T/C [19]: 94.6%
- viability, T/C [20]: 102%
- viability, T/C [33]: 101%
- viability, T/C [34]: 94.9%
- viability, T/C [21]: 116%
- viability, T/C [22]: 98.3%
- viability, T/C [23]: 105%
- viability, T/C [24]: 108%
- viability, T/C [35]: 102%
- viability, T/C [36]: 89.1%

SMILES: O=c1[nH]cc(F)c(=O)[nH]1 + Nc1ccc(C#CCN(C(=O)Cc2ncc(C(F)(F)F)cc2C(F)(F)F)c2ccc(F)cc2)nn1
- IC50 (second compound 0.0316 µM): 3.24 µM
- IC50 (second compound 0.1 µM): 3.29 µM
- IC50 (second compound 0.316 µM): 4.05 µM
- IC50 (second compound 1 µM): 4.13 µM
- IC50 (second compound 3.16 µM): 2.53 µM
- IC50 (second compound 10 µM): 3.17 µM
- viability, T/C [1]: 98.3%
- viability, T/C [2]: 105%
- viability, T/C [3]: 96.6%
- viability, T/C [4]: 80.8%
- viability, T/C [25]: 50.7%
- viability, T/C [26]: 31.6%
- viability, T/C [5]: 107%
- viability, T/C [6]: 105%
- viability, T/C [7]: 104%
- viability, T/C [8]: 81%
- viability, T/C [27]: 51.5%
- viability, T/C [28]: 35.2%
- viability, T/C [9]: 100%
- viability, T/C [10]: 110%
- viability, T/C [11]: 104%
- viability, T/C [12]: 82.8%
- viability, T/C [29]: 56.7%
- viability, T/C [30]: 30.7%
- viability, T/C [13]: 115%
- viability, T/C [14]: 99.7%
- viability, T/C [15]: 105%
- viability, T/C [16]: 77.9%
- viability, T/C [31]: 56.3%
- viability, T/C [32]: 31.5%
- viability, T/C [17]: 98.1%
- viability, T/C [18]: 105%
- viability, T/C [19]: 102%
- viability, T/C [20]: 80.2%
- viability, T/C [33]: 43.3%
- viability, T/C [34]: 32.1%
- viability, T/C [21]: 104%
- viability, T/C [22]: 97.6%
- viability, T/C [23]: 106%
- viability, T/C [24]: 83.1%
- viability, T/C [35]: 51.1%
- viability, T/C [36]: 34.1%

— PubChem BioAssay AID1963845 (Molecular Pharmacology Branch, DTP, NCI, 2024)
